Where a name gives a salt, the structure may show the parent alone.
Tests used:
[1] = tested on: Stomach injury through water-immersion constraint stress; assay: Anti-ulcer test (2): stomach injury through water-immersion constraint stress; format: in vivo, Male rats of Sprague-Dawley strain; settings: 50 mg/kg oral, immediately before stress-loading (23° C., 8 hours), 8 animals, * p<0.05; for Ulcer coefficient (mm) mean ± S.E.: non-treated 52.8 ± 9.8
Method: Male rats of Sprague-Dawley strain (supplied by Charles-River Co., SPE) weighing 220 to 280 g were fasted for 24 hours and employed in the experiment, whereby the rats were allowed free access to water for the first 22 hours, with no water being given for the remaining 2 hours. The test compound was suspended in 0.5% aqueous carboxymethylcellulose solution and the suspension was given to the test animals at a dose of 1 ml/200 g body weight, with the solvent alone being applied as a control at the same dose. The rats were stress-loaded by soaking the animals placed in a stress cage of Univ. of Tokyo type up to the xiphoid in a water tank at 23° C. and they were taken out of the tank 8 hours later and sacrificed with ether. The stomachs were isolated and treated with formalin, and individual injuries formed in the glandular portion of the stomach were measured in length (mm), with the total sum per rat of the measured injury lengths being calculated. The test compound was given to the test animals orally immediately before the stress-loading.

[2] = tested on: Stomach injury with hydrochloric acid/ethanol; assay: Anti-ulcer test (1): stomach injury with hydrochloric acid/ethanol; format: in vivo, Male rats of Sprague-Dawley strain; settings: for Suppression % / Ulcer coefficient (mm) mean ± S.E.: 50 mg/kg oral, 1 hour before hydrochloric acid/ethanol, 8 animals, * p<0.05; for Ulcer coefficient (mm) mean ± S.E.: non-treated 78.4 ± 21.1
Method: Male rats of Sprague-Dawley strain (supplied by Charles-River Co., SPE) weighing 220 to 280 g were fasted for 24 hours and employed in the experiment, whereby the rats were allowed free access to water for the first 22 hours, with no water being given for the remaining 2 hours. The test compound was suspended in 0.5% aqueous carboxymethylcellulose solution and the suspension was given to the test animals at a dose of 1 ml/200 g body weight, with the solvent alone being applied as a control at the same dose. Rats were treated by oral administration of hydrochloric acid/ethanol (containing 0.15 mole hydrochloric acid solution in 80% ethanol) at a dose of 1 ml/200 g body weight and sacrificed with ether 1 hour later, and the stomachs and duodena were isolated, followed by removal of the contents from the duodena. After the cardiac orifices were ligated, 2% formalin solution was injected in 8 ml portion into the stomachs through the duodenum, and the pyloric sphincters were ligated, followed by immersion into the same solution for 10 min to perform slight fixation (hereinafter referred to as "formalin treatment"). The stomachs were incised along the greater curvature, and individual injuries (erosions) generated in the glandular portion of each stomach were measured in length (mm) under microscope for anatomy (10 fold magnification), with the total sum per rat of measured injury lengths being calculated. The test compound was given to the animals orally 1 hour before administration of hydrochloric acid/ethanol.

Solubility in water = format: physicochemical
mice = assay: Acute toxicity test, oral; settings: 3 day observation
Source text: Male ddy strain mice (weighing 23 to 26 g) used in the experiment were divided into groups each consisting of 3 heads and treated by oral administration of the test compound suspended with powdered gum arabic, followed by observation for any abnormalities over a 3 day period to find the number of dead animals.

Compound | Suppression % [1] [%] | Ulcer coefficient (mm) mean ± S.E. [1] [mm] | Suppression % [2] [%] | Ulcer coefficient (mm) mean ± S.E. [2] [mm] | effects in the anti-ulcer tests ([2]; conclusion in words from the test results) | amount of compound dissolving in 2 ml of water (Solubility in water) [g] | suppressory activity in the anti-ulcer test, compared with control, tranexamic acid and cetraxate hydrochloride ([2]; summary in words of the anti-ulcer tests (Tables 1 and 2)) | Nd/No (No. of dead animals / total No. of experimental animals) (mice; 600 mg/kg oral) | Nd/No (No. of dead animals / total No. of experimental animals) (mice; 1,200 mg/kg oral) | mortality (mice; oral doses up to 1,200 mg/kg)
NC[C@H]1CC[C@H](C(=O)Oc2ccc(CCC(=O)O)cc2)CC1 [Cetraxate hydrochloride] | 39.4 | 32.0 ± 8.4 | 40.9 | 46.3 ± 7.6 | – | – | – | – | – | –
NC[C@H]1CC[C@H](C(=O)O)CC1 [Tranexamic acid, tranexamic acid] | 11.9 | 46.5 ± 8.4 | 10.1 | 70.5 ± 20.1 | did not produce any marked effects | – | – | – | – | –
L-malic acid salt of zinc tranexamate monohydrate | – | – | – | – | – | 1 | – | – | – | –
zinc tranexamate monohydrate | 57.8 | 22.3 ± 8.4 | 81.1 | 14.8 ± 4.5 | – | – | improved suppressory activity as compared with the control, or tranexamic acid and cetraxate hydrochloride | 0/3 | 0/3 | did not cause any animal to die
